Like-named read-outs stand apart in the source and are kept apart here.
What was measured:
DOHH2 cells = test: Cell proliferation assay (MTS), DOHH2 cells; type: cell-based; conditions: DOHH2 (DSMZ ACC 47) cell proliferation, 5000 cells/well, 120 h, MTS, mechanism-based readout of Bcl-2 inhibition, read-out: DOHH2 IC50
Text: (§1) MTS testing kit was purchased from Promega. The RPMI-1640, Fetal bovine serum and Penicillin-Streptomycin were purchased from Gibco. Dimethyl sulfoxide (DMSO) was purchased from Sigma.
(§2) To investigate whether a compound is able to inhibit the activity of Bcl-2 in cells, a mechanism-based assay using DOHH2 (DSMZ No.® ACC 47) and RS4; 11 (ATCC® CRL-1873™) cell was developed. In this assay, inhibition of Bcl-2 was detected by the inhibition of DOHH2 and RS4; 11 cells proliferation. DOHH2 and RS4; 11 cells were cultured in culture flasks to 40-80% confluence in RPMI-1640 plus 10% fetal bovine serum. Cells were collected and plated onto 96-well plates at desired cell density (DOHH2: 5000 cells/well; RS4; 11: 30000 cells/well). Plates were incubated overnight at 37° C., with 5% CO2 to adhere. Compounds were added to the plates, and the final compound concentrations were 10000, 3333, 1111, […], 124, 41, 14, 4.6 and 1.5 nM. Plates plated with DOHH2 or RS4; 11 cells were placed at 37° C., with 5% CO2 for 120 h (DOHH2) or 72 h (RS4; 11) respectively. 20 μl MTS/100 μl medium mixture solution were added to each well and incubate the plates for exactly 2 hours. The reaction was stopped by adding 25 μl 10% SDS per well. Measure absorbance at 490 nm and 650 nm (reference wavelength). ICso was calculated using GraphPad Prism 5.0.

RS4; 11 cells = test: Cell proliferation assay (MTS), RS4; 11 cells; type: cell-based; conditions: RS4, 11 (ATCC CRL-1873) cell proliferation, 30000 cells/well, 72 h, MTS, mechanism-based readout of Bcl-2 inhibition, read-out: RS4, 11 IC50
Text: as §1, §2

SMILES	IC50 (RS4; 11 cells; Homo sapiens, RS4-11, 72 h)	IC50 (DOHH2 cells; Homo sapiens, DOHH-2, 120 h)	IC50 (DOHH2 cells)	IC50 (RS4; 11 cells)
CCN=S1(=O)CCN(CC[C@H](C)Nc2ccc(S(=O)(=O)NC(=O)c3ccc(N4CCN(CC5=C(c6ccc(Cl)cc6)CC(C)(C)CC5)CC4)cc3Oc3cnc4[nH]ccc4c3)cc2[N+](=O)[O-])CC1 [Example 78, (S)-2-((1H-pyrrolo[2,3-b]pyridin-5-yl)oxy)-4-(4-((4′-chloro-5,5-dimethyl-3,4,5,6-tetrahydro-[1,1′-biphenyl]-2-yl)methyl)piperazin-1-yl)-N-((4-((4-(1-(ethylimino)-1-oxido-1λ^6-thiomorpholino)butan-2-yl)amino)-3-nitrophenyl)sulfonyl) benzamide]	16 nM	11 nM	–	–
CC1(C)CCC(CN2CCN(c3ccc(C(=O)NS(=O)(=O)c4ccc(NCC5CCC(N=S(C)(C)=O)CC5)c([N+](=O)[O-])c4)c(Oc4cnc5[nH]ccc5c4)c3)CC2)=C(c2ccc(Cl)cc2)C1 (single isomer, unassigned) [Example 50B, 2-((1H-pyrrolo[2,3-b]pyridin-5-yl)oxy)-4-(4-((4′-chloro-5,5-dimethyl-3,4,5,6-tetrahydro-[1,1′-biphenyl]-2-yl)methyl)piperazin-1-yl)-N-((4-(((4-((dimethyl(oxo)-λ^6-sulfanylidene)amino)cyclohexyl)methyl)amino)-3-nitrophenyl)sulfonyl) benzamide]	–	–	13.4 nM	4 nM
CC1(C)CCC(CN2CCN(c3ccc(C(=O)NS(=O)(=O)c4ccc(NCC5CCC(N=S(C)(C)=O)CO5)c([N+](=O)[O-])c4)c(Oc4cnc5[nH]ccc5c4)c3)CC2)=C(c2ccc(Cl)cc2)C1 (stereo not shown) [Example 57, 2-((1H-pyrrolo[2,3-b]pyridin-5-yl)oxy)-4-(4-((4′-chloro-5,5-dimethyl-3,4,5,6-tetrahydro-[1,1′-biphenyl]-2-yl)methyl)piperazin-1-yl)-N-((4-(((5-((dimethyl(oxo)-λ^6-sulfanylidene)amino)tetrahydro-2H-pyran-2-yl)methyl)amino)-3-nitrophenyl)sulfonyl)benzamide]	20 nM	30 nM	–	–
C[C@@H](CCN1CCS(=O)(=NC(=O)C2CC2)CC1)Nc1ccc(S(=O)(=O)NC(=O)c2ccc(N3CCN(CC4=C(c5ccc(Cl)cc5)CC(C)(C)CC4)CC3)cc2Oc2cnc3[nH]ccc3c2)cc1[N+](=O)[O-] [Example 83, (S)-2-((1H-pyrrolo[2,3-b]pyridin-5-yl)oxy)-4-(4-((4′-chloro-5,5-dimethyl-3,4,5,6-tetrahydro-[1,1′-biphenyl]-2-yl)methyl)piperazin-1-yl)-N-((4-((4-(1-((cyclopropanecarbonyl)imino)-1-oxido-1λ^6-thiomorpholino)butan-2-yl)amino)-3-nitrophenyl)sulfonyl)benzamide]	18 nM	47 nM	–	–
CCN=S1(=O)CCN(CC[C@H](C)Nc2ccc(S(=O)(=O)NC(=O)c3ccc(N4CCN(CC5=C(c6ccc(Cl)cc6)CC(C)(C)CC5)CC4)cc3Oc3cnc4[nH]ccc4c3)cc2S(=O)(=O)C(F)(F)F)CC1 [Example 87, (S)-2-((1H-pyrrolo[2,3-b]pyridin-5-yl)oxy)-4-(4-((4′-chloro-5,5-dimethyl-3,4,5,6-tetrahydro-[1,1′-biphenyl]-2-yl)methyl)piperazin-1-yl)-N-((4-((4-(1-(ethylimino)-1-oxido-1λ^6-thiomorpholino)butan-2-yl)amino)-3-((trifluoromethyl)sulfonyl)phenyl)sulfonyl) benzamide]	–	–	266 nM	145 nM
CC(C)OC(=O)N=S1(=O)CCN(CC[C@H](C)Nc2ccc(S(=O)(=O)NC(=O)c3ccc(N4CCN(CC5=C(c6ccc(Cl)cc6)CC(C)(C)CC5)CC4)cc3Oc3cnc4[nH]ccc4c3)cc2[N+](=O)[O-])CC1 [Example 86, isopropyl (S)-(4-(3-((4-(N-(2-((1H-pyrrolo[2,3-b]pyridin-5-yl)oxy)-4-(4-((4′-chloro-5,5-dimethyl-3,4,5,6-tetrahydro-[1,1′-biphenyl]-2-yl)methyl)piperazin-1-yl)benzoyl)sulfamoyl)-2-nitrophenyl)amino)butyl)-1-oxido-1λ^6-thiomorpholin-1-ylidene) carbamate]	23 nM	35 nM	–	–
CN=S1(=O)CCN(CCNc2ccc(S(=O)(=O)NC(=O)c3ccc(N4CCN(CC5=C(c6ccc(Cl)cc6)CC(C)(C)CC5)CC4)cc3Oc3cnc4[nH]ccc4c3)cc2[N+](=O)[O-])CC1 [Example 33, 2-((1H-pyrrolo[2,3-b]pyridin-5-yl)oxy)-4-(4-((4′-chloro-5,5-dimethyl-3,4,5,6-tetrahydro-[1,1′-biphenyl]-2-yl)methyl)piperazin-1-yl)-N-((4-((2-(1-(methylimino)-1-oxido-1λ^6-thiomorpholino)ethyl)amino)-3-nitrophenyl)sulfonyl) benzamide]	101 nM	–	–	–

Second part, led by results:

IC50 (RS4; 11 cells; Homo sapiens, RS4-11, 72 h)	SMILES	IC50 (DOHH2 cells; Homo sapiens, DOHH-2, 120 h)	IC50 (DOHH2 cells)	IC50 (RS4; 11 cells)
102 nM	COC(=O)N=S1(=O)CCN(CCNc2ccc(S(=O)(=O)NC(=O)c3ccc(N4CCN(CC5=C(c6ccc(Cl)cc6)CC(C)(C)CC5)CC4)cc3Oc3cnc4[nH]ccc4c3)cc2[N+](=O)[O-])CC1 [Example 43, methyl (4-(2-((4-(N-(2-((1H-pyrrolo[2,3-b]pyridin-5-yl)oxy)-4-(4-((4′-chloro-5,5-dimethyl-3,4,5,6-tetrahydro-[1,1′-biphenyl]-2-yl)methyl)piperazin-1-yl)benzoyl)sulfamoyl)-2-nitrophenyl)amino)ethyl)-1-oxido-1λ^6-thiomorpholin-1-ylidene) carbamate]	271 nM	–	–
40 nM	C[C@@H](CN1CCS(=O)(=NC2CC2)CC1)Nc1ccc(S(=O)(=O)NC(=O)c2ccc(N3CCN(CC4=C(c5ccc(Cl)cc5)CC(C)(C)CC4)CC3)cc2Oc2cnc3[nH]ccc3c2)cc1[N+](=O)[O-] [Example 39, (S)-2-((1H-pyrrolo[2,3-b]pyridin-5-yl)oxy)-4-(4-((4′-chloro-5,5-dimethyl-3,4,5,6-tetrahydro-[1,1′-biphenyl]-2-yl)methyl)piperazin-1-yl)-N-((4-((1-(1-(cyclopropylimino)-1-oxido-1λ^6-thiomorpholino)propan-2-yl)amino)-3-nitrophenyl)sulfonyl)benzamide]	163 nM	–	–
208 nM	CCOC(=O)N=S1(=O)CCN(C[C@H](C)Nc2ccc(S(=O)(=O)NC(=O)c3ccc(N4CCN(CC5=C(c6ccc(Cl)cc6)CC(C)(C)CC5)CC4)cc3Oc3cnc4[nH]ccc4c3)cc2S(=O)(=O)C(F)(F)F)CC1 [Example 76, ethyl (S)-(4-(2-((4-(N-(2-((1H-pyrrolo[2,3-b]pyridin-5-yl)oxy)-4-(4-((4′-chloro-5,5-dimethyl-3,4,5,6-tetrahydro-[1,1′-biphenyl]-2-yl)methyl)piperazin-1-yl)benzoyl)sulfamoyl)-2-((trifluoromethyl)sulfonyl)phenyl)amino)propyl)-1-oxido-1λ^6-thiomorpholin-1-ylidene) carbamate]	247 nM	–	–
111 nM	C[C@@H](CN1CCP(C)(=O)CC1)Nc1ccc(S(=O)(=O)NC(=O)c2ccc(N3CCN(CC4=C(c5ccc(Cl)cc5)CC(C)(C)CC4)CC3)cc2Oc2cnc3[nH]ccc3c2)cc1[N+](=O)[O-] [Example 17, (S)-2-((1H-pyrrolo[2,3-b]pyridin-5-yl)oxy)-4-(4-((4′-chloro-5,5-dimethyl-3,4,5,6-tetrahydro-[1,1′-biphenyl]-2-yl)methyl)piperazin-1-yl)-N-((4-((1-(4-methyl-4-oxido-1,4-azaphosphinan-1-yl)propan-2-yl)amino)-3-nitrophenyl)sulfonyl)benzamide]	132 nM	–	–
20 nM	C[C@@H](CCN1CCC(N=S(C)(C)=O)CC1)Nc1ccc(S(=O)(=O)NC(=O)c2ccc(N3CCN(CC4=C(c5ccc(Cl)cc5)CC(C)(C)CC4)CC3)cc2Oc2cnc3[nH]ccc3c2)cc1[N+](=O)[O-] [Example 96, (S)-2-((1H-pyrrolo[2,3-b]pyridin-5-yl)oxy)-4-(4-((4′-chloro-5,5-dimethyl-3,4,5,6-tetrahydro-[1,1′-biphenyl]-2-yl)methyl)piperazin-1-yl)-N-((4-((4-(4-((dimethyl(oxo)-λ^6-sulfanylidene)amino)piperidin-1-yl)butan-2-yl)amino)-3-nitrophenyl)sulfonyl) benzamide]	26 nM	–	–
60 nM	CC1(C)CCC(CN2CCN(c3ccc(C(=O)NS(=O)(=O)c4ccc(NCCN5CCS(=O)(=NC6CC6)CC5)c([N+](=O)[O-])c4)c(Oc4cnc5[nH]ccc5c4)c3)CC2)=C(c2ccc(Cl)cc2)C1 [Example 35, 2-((1H-pyrrolo[2,3-b]pyridin-5-yl)oxy)-4-(4-((4′-chloro-5,5-dimethyl-3,4,5,6-tetrahydro-[1,1′-biphenyl]-2-yl)methyl)piperazin-1-yl)-N-((4-((2-(1-(cyclopropylimino)-1-oxido-1λ^6-thiomorpholino)ethyl)amino)-3-nitrophenyl)sulfonyl)benzamide]	181 nM	–	–
